Each structure is given as a SMILES string.

The subject of this series is HeLa cells. The following applies: human, 48 h, 1 micromolar.

`CC(=O)O[C@H]1C(=O)[C@@]2(C)[C@H]([C@H](OC(=O)c3ccccc3)[C@]3(O)C[C@H](OC(=O)[C@H](O)[C@@H](NC(=O)c4ccccc4)c4ccccc4)C(C)=C1C3(C)C)[C@]1(OC(C)=O)CO[C@@H]1C[C@@H]2O` [taxol] had a HeLa cells killed of roughly 100%.

The record behind these values is US9732164B2, “Chitosan-derivative compounds and methods of controlling microbial populations” (SYNEDGEN, INC., priority 2006, dated 2017).
